Assay [1] deals with kochia. As to the kind of experiment: Test E postemergence. It counts as in vivo, Kochia scoparia. An excerpt: Seeds of plant species selected from corn (Zea mays), soybean (Glycine max), velvetleaf (Abutilon theophrasti), lambsquarters (Chenopodium album), wild poinsettia (Euphorbia heterophylla), palmer pigweed (Amaranthus palmeri), waterhemp (common waterhemp, Amaranthus rudis), surinam grass (Brachiaria decumbens), large (Lg) crabgrass (Digitaria sanguinalis), Brazilian crabgrass (Digitaria horizontalis), fall panicum (Panicum dichotomiflorum), giant foxtail (Setaria faberii), green foxtail (Setaria viridis), goosegrass (Eleusine indica), johnsongrass (Sorghum halepense), ragweed (common ragweed, Ambrosia elatior), barnyardgrass (Echinochloa crus-galli), sandbur (southern sandbur, Cenchrus echinatus), arrowleaf sida (Sida rhombifolia), Italian ryegrass (Lolium multiflorum), dayflower (Virginia (VA) dayflower, Commelina virginica), field bindweed (Convolvulus arvensis), morningglory (Ipomoea coccinea), nightshade (eastern black nightshade, Solanum ptycanthum), kochia (Kochia scoparia), yellow nutsedge (Cyperus esculentus), cocklebur (common cocklebur, Xanthium strumarium), smartweed (ladysthumb smartweed, and hairy beggarticks (Bidens pilosa), were planted into a silt loam soil and treated preemergence with test chemicals formulated in a non-phytotoxic solvent mixture which included a surfactant.
At the same time, plants from these crop and weed species and also horseweed (Canada horseweed, Conyza canadensis), waterhemp_RES1, (ALS & Triazine resistant common waterhemp, Amaranthus rudis), and waterhemp_RES2, (ALS & HPPD resistant common waterhemp, Amaranthus rudis) were planted in pots containing Redi-Earth® planting medium (Scotts Company, 14111 Scottslawn Road, Marysville, Ohio 43041) comprising spaghnum peat moss, vermiculite, wetting agent and starter nutrients were treated with postemergence applications of test chemicals formulated in the same manner. Plants ranged in height from 2 to 18 cm for postemergence treatments (1- to 4-leaf stage). Treated plants and controls were maintained in a greenhouse for 14 to 21 days, after which time all species were compared to controls and visually evaluated. Plant response ratings, summarized in Table E, are based on a scale of 0 to 100 where 0 is no effect and 100 is complete control. A dash (-) response means no test result.

Assay [2] relates to wild buckwheat. As to the kind of experiment: Test D preemergence. It counts as in vivo, Polygonum convolvulus. As to conditions: Fallopia convolvulus, pre-emergence. An excerpt:
(§1) Seeds of plant species selected from bluegrass (annual bluegrass, Poa annua), blackgrass (Alopecurus myosuroides), canarygrass (littleseed canarygrass, Phalaris minor), chickweed (common chickweed, Stellaria media), galium (catchweed bedstraw, Galium aparine), bromegrass, downy (downy bromegrass, Bromus tectorum), field poppy (Papaver rhoeas), field violet (Viola arvensis), green foxtail (Setaria viridis), deadnettle (henbit deadnettle, Lamium amplexicaule), Italian ryegrass (Lolium multiflorum), kochia (Kochia scoparia), lambsquarters (Chenopodium album), oilseed rape (Brassica napus), pigweed (Amaranthus retroflexus), chamomile (scentless chamomile, Matricaria inodora), Russian thistle (Salsola kali), speedwell (bird's-eye speedwell, Veronica persica), spring barley (Hordeum vulgare), spring wheat (Triticum aestivum), wild buckwheat (Polygonum convolvulus), wild mustard (Sinapis arvensis), wild oat (Avena fatua), wild radish (Raphanus raphanistrum), windgrass (Apera spica-venti), winter barley (Hordeum vulgare), and winter wheat (Triticum aestivum) were planted into a silt loam soil and treated preemergence with test chemicals formulated in a non-phytotoxic solvent mixture which included a surfactant.
(§2) At the same time, these species were planted in pots containing Redi-Earth® planting medium (Scotts Company, 14111 Scottslawn Road, Marysville, Ohio 43041) comprising spaghnum peat moss, vermiculite, wetting agent and starter nutrients and treated with postemergence applications of the test chemicals formulated in the same manner. Plants ranged in height from 2 to 18 cm (1- to 4-leaf stage). Treated plants and controls were maintained in a controlled growth environment for 7 to 21 days after which time all species were compared to controls and visually evaluated. Plant response ratings, summarized in Table D, are based on a scale of 0 to 100 where 0 is no effect and 100 is complete control. A dash (-) response means no test result.

The subject of assay [3] is bromegrass, downy. Kind of assay: Test D postemergence. The conditions noted are these: Bromus tectorum, post-emergence, Postemergence, scale 0 to 100 (0 no effect, 100 complete control), read-out: Plant response rating, Bromegrass, Downy. It counts as in vivo, Bromus tectorum.
Source text: as §1, §2

In assay [4] the test system is spring wheat. Kind of assay: Test D postemergence. The conditions noted are these: Triticum aestivum, post-emergence. It counts as in vivo, Triticum aestivum.
Source text: as §1, §2

Assay [5] relates to winter wheat. As to the kind of experiment: Test D postemergence. It counts as in vivo, Triticum aestivum. As to conditions: Triticum aestivum, post-emergence.
Source text: as §1, §2

Assay [6] concerns field poppy. As to the kind of experiment: Test D postemergence. It counts as in vivo, Papaver rhoeas. As to conditions: Papaver rhoeas, post-emergence. Summed up:
(§3)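 Plant response is a visual score from 0 (no effect) to 100 (complete control) relative to controls. Plants were kept in a controlled growth environment for 7 to 21 days after spraying. Preemergence treatments went onto silt loam soil; postemergence ones onto 1- to 4-leaf seedlings.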

The subject of assay [7] is wild oat. As to the kind of experiment: Test D postemergence. It counts as in vivo, Avena fatua. The conditions noted are these: Avena fatua, post-emergence. The procedure, abridged: as §3
Assay [8] has as its system bermudagrass. As to the kind of experiment: Test F preemergence. It counts as in vivo, Cynodon dactylon. As to conditions: 21 days, scale 0 to 100. An excerpt: Seeds of plant species selected from bermudagrass (Cynodon dactylon), surinam grass (Brachiaria decumbens), large (Lg) crabgrass (Digitaria sanguinalis), crabgrass, naked (naked crabgrass, Digitaria nuda), foxtail, green (green foxtail, Setaria viridis), johnsongrass (Sorghum halepense), kochia (Kochia scoparia), morningglory (pitted morningglory, Ipomoea lacunosa), nutsedge, purple (purple nutsedge, Cyperus rotundus), ragweed (common ragweed, Ambrosia elatior), mustard, black (black mustard, Brassica nigra), guineagrass (Panicum maximum), dallisgrass (Paspalum dilatatum), barnyardgrass (Echinochloa crus-galli), sandbur (southern sandbur, Cenchrus echinatus), sowthistle (common sowthistle, Sonchus oleraceous), Italian ryegrass (Lolium multiflorum), signalgrass (broadleaf signalgrass, Brachiaria platyphylla), dayflower (Virginia (VA) dayflower, Commelina virginica), bluegrass (annual bluegrass, Poa annua), quackgrass (Elytrigia repens), mallow (common mallow, Malva sylvestris), buckwheat, wild (wild buckwheat, Polygonum convolvulus), leafy spurge (Euphorbia esula), chickweed (common chickweed, Stellaria media), wild poinsettia (Euphorbia heterophylla), and pigweed (Amaranthus retroflexus) were planted into a blend of loam soil and sand and treated preemergence with test chemicals formulated in a non-phytotoxic solvent mixture which included a surfactant.
Treated plants and controls were maintained in a greenhouse for 21 days, after which time all species were compared to controls and visually evaluated. Plant response ratings, summarized in Table F, are based on a scale of 0 to 100 where 0 is no effect and 100 is complete control. A dash (-) response means no test result.

2 compounds from US9695155B2, “Herbicidal substituted pyrimidinyloxy benzene compounds” (E. I. DU PONT DE NEMOURS AND COMPANY, priority 2013, dated 2017) can be followed below.

Turning to `Clc1cnc(Oc2cccc(Cl)c2-n2cc(I)cn2)nc1` [Compound 181], the “Plant response rating, Kochia” value stood at 60 in assay [1] (Postemergence, 31 g ai/ha, scale 0 to 100); 50 in assay [1] (Postemergence, 62 g ai/ha, scale 0 to 100); 90 in assay [1] (Postemergence, 125 g ai/ha, scale 0 to 100); 35 in assay [1] (postemergence, 16 g ai/ha, scale 0 to 100, 0 no effect, 100 complete control).
In the case of `N#Cc1cccc(Oc2ncc(Cl)cn2)c1-n1cc(OCC(F)(F)F)cn1` [Compound 274, 3-[(5-chloro-2-pyrimidinyl)oxy]-2-[4-(2,2,2-trifluoroethoxy)-1H-pyrazol-1-yl]benzonitrile], the pest or weed control at 16 g/ha stood at 10% in assay [2] (16 g ai/ha, scale 0 (no effect) to 100 (complete control), read-out: Plant response rating, Buckwheat, Wild); 20% in assay [3] (16 g ai/ha); 25% in assay [6] (16 g ai/ha, scale 0-100, read-out: Plant response rating, Field Poppy); 20% in assay [7] (16 g ai/ha, scale 0-100, read-out: Plant response rating, Oat, Wild). Also, the pest or weed control at 31 g/ha came to 100% in assay [2] (31 g ai/ha, scale 0-100, read-out: Plant response rating, Buckwheat, Wild); 25% in assay [3] (31 g ai/ha); 40% in assay [6] (31 g ai/ha, scale 0 to 100 (0 no effect, 100 complete control), read-out: Plant response rating, Field Poppy); 30% in assay [7] (31 g ai/ha, scale 0 to 100 (0 no effect, 100 complete control), read-out: Plant response rating, Oat, Wild). In addition, the pest or weed control at 62 g/ha in assay [2] (62 g ai/ha, scale 0-100, read-out: Plant response rating, Buckwheat, Wild) was found to be 100%; in assay [3] (62 g ai/ha) it was 35%; in assay [6] (62 g ai/ha, scale 0 to 100 (0 no effect, 100 complete control), read-out: Plant response rating, Field Poppy), 40%; in assay [7] (62 g ai/ha, scale 0 to 100 (0 no effect, 100 complete control), read-out: Plant response rating, Oat, Wild), 35%. The pest or weed control at 125 g/ha in assay [2] (125 g ai/ha, scale 0-100, read-out: Plant response rating, Buckwheat, Wild) worked out at 100%; in assay [3] (125 g ai/ha) it was 40%; in assay [6] (125 g ai/ha, scale 0 to 100 (0 no effect, 100 complete control), read-out: Plant response rating, Field Poppy), 80%; in assay [7] (125 g ai/ha, scale 0 to 100 (0 no effect, 100 complete control), read-out: Plant response rating, Oat, Wild), 40%. Besides, the plant injury at 16 g/ha was found to be 10% in assay [4] (16 g ai/ha, scale 0-100, read-out: Plant response rating, Wheat, Spring) and 10% in assay [5] (16 g ai/ha, scale 0-100, read-out: Plant response rating, Wheat, Winter). The plant injury at 31 g/ha in assay [4] (31 g ai/ha, scale 0 to 100 (0 no effect, 100 complete control), read-out: Plant response rating, Wheat, Spring) stood at 15%; in assay [5] (31 g ai/ha, scale 0 to 100 (0 no effect, 100 complete control), read-out: Plant response rating, Wheat, Winter), 20%. Besides, the plant injury at 62 g/ha in assay [4] (62 g ai/ha, scale 0 to 100 (0 no effect, 100 complete control), read-out: Plant response rating, Wheat, Spring) amounted to 15%; in assay [5] (62 g ai/ha, scale 0 to 100 (0 no effect, 100 complete control), read-out: Plant response rating, Wheat, Winter), 20%. Besides, the plant injury at 125 g/ha in assay [4] (125 g ai/ha, scale 0 to 100 (0 no effect, 100 complete control), read-out: Plant response rating, Wheat, Spring) is 25%; in assay [5] (125 g ai/ha, scale 0 to 100 (0 no effect, 100 complete control), read-out: Plant response rating, Wheat, Winter) it was 30%. Besides, the “Plant response rating, Bermudagrass” value is recorded as 85 in assay [8] (16 g ai/ha); 100 in assay [8] (31 g ai/ha); 100 in assay [8] (62 g ai/ha); 100 in assay [8] (125 g ai/ha); 100 in assay [8] (250 g ai/ha).
